Where no end group is shown, it is not given here.

Assay [1] concerns HUVEC. Nature of the assay: HUVEC tube formation assay on Matrigel. To be noted: peptides at 2 μM, compared to Control; for inhibition of VEGF-induced tube formation: 1 μg/ml VEGF; for inhibition of angiogenin-induced tube formation: 1 μg/ml angiogenin. It counts as cell-based, human. As to the method:
FIGS. 6A-6D illustrate in-vitro inhibition of angiogenesis in the HUVEC model by T2 peptides. HUVEC cells plated on Matrigel™ were exposed to 2 μM of T2 peptides A103-Q159 (SEQ ID NO: 60), K108-K133 (SEQ ID NO: 57) or K108-L123 (SEQ ID NO: 67), in addition to 1 μg/ml of angiogenin or VEGF as the angiogenic agent, as indicated. Control wells received PBS. FIG. 6B-Results were assessed by imaging software, and quantified, and expressed relative to tube formation with angiogenin or VEGF alone (100%) Column 1=angiogenin, column 2=angiogenin+SEQ ID NO: 60, column 3=angiogenin+SEQ ID NO: 57, column 4=angiogenin+[…], Column 5=VEGF, column 6=VEGF+SEQ ID NO: 60, column 7=VEGF+SEQ ID NO: 57, column 8=VEGF+[…]. FIGS. 6C and 6D illustrate the inhibitory effect of truncated human T2 polypeptide trT2-49m (SEQ ID NO: 129) on angiogenin and VEGF induced HUVEC tube formation. Note the significant inhibition of HUVEC tube formation by all of the T2 peptides assayed, and in particular, K108-K133 (SEQ ID NO: 57);
HUVEC (CC-2519)(fresh or commercially provided) are maintained in M199 rrrediurn supplemented with 20% FCS, 1% glutamine, 1% antibiotic-antimycotic solution, ECGF, and heparin, plated in a 96-well plate (14×10^3 cells/well) previously coated with growth factor-depleted Matrigel™ (BD Biosciences), in M199 medium containing 5% FCS and 0.005% ECGF. The wells are supplemented with candidate T2 RNase peptides or PBS, and angiogenic growth factors (1 μg/ml angiogenin, bFGF or VEGF) to a final volume of 120 pl. Plates are incubated (overnight), photographed and the extent of tube formation (angiogenesis) assessed.

Assay [2] has as its target actin (Oryctolagus cuniculus, UniProt P68135). Nature of the assay: Surface plasmon resonance (BIAcore) of actin binding. To be noted: actin on CM5 chip, 25° C. As to the method:
SPR was performed on a BIAcore 3000 instrument (BIAcore, Uppsala, Sweden). Actin was diluted in 100 mM CH3COONa pH 4.6 to a final concentration of 20 μg/ml (200 μl total) resulting in ˜1 ng immobilized actin on a CM5 BIAcore sensor chip (GE Healthcare Bio-Sciences AB) using the standard BIAcore amine coupling chemistry protocol. The CM5 chip allows four separate flow cells to be operated in the BIAcore 3000 instrument used in these experiments. Coupling is achieved by activating the surface of the sensor chips with equal volumes of 50 mM N-hydroxysuccimide (NHS)/200 mM Nethyl-N-(3-[…])-carboiimide (EDC) (BIAcore, AB, Uppsala, Sweden) to form activated carboxyl groups. An actin solution […] was run over the chip for 5 min at a rate of 10 μl/min, allowing the amine groups on the protein to react with the activated esters. In the final stage of immobilization, the surface was blocked by 1M ethanol amine, pH 8.0. The binding assay was performed by injecting the hRNASET2, trT2-49, trT2-49m or peptides solutions in running buffer (HBS—10 mM Hepes, 150 mM Sodium Chloride, 3 mM EDTA, 0.005% Polysorbate 20) at 5 different concentrations at a flow rate of 10 μl/min at 25° C. Injections were performed simultaneously over all four channels and blank surface (a plain dextran matrix, channel 1) was used as control. The net signal was obtained by subtracting the blank signal from the signal of the immobilized surface. The association phase for protein or peptides binding to actin was followed for 4 min, and dissociation phases were monitored for 3 min. Surface regeneration between consecutive binding cycles included a 1 min injection of 1 mM NaOH. The response was monitored as a function of time (sensorgram) at 25° C. Multi-concentration data were globally fit using BIA evaluation 3.2 software.
The strength of a two molecule interaction is characterized by the equilibrium dissociation (binding) constant KD=[P][L]/[PL], where [P] is the concentration of free protein (or peptide), [L] the concentration of ligand and [PL] the concentration of the complex. […]

Assay [3] concerns the target T1, G-Actin from rabbit muscle (Oryctolagus cuniculus, UniProt P68135).
T1 construct: G-Actin from rabbit muscle; purchased Sigma-Aldrich, St Louis, Mo; host or cells: rabbit muscle (tissue-derived)
Nature of the assay: ELISA actin binding assay (solid-phase, immobilized actin). The settings on record: immobilized G-actin 500 ng/well. Here is the method: Peptides corresponding to a variety of amino acid sequences in the region of human RNASET2 comprising helix 5 and helix 6 were synthesized and assayed for actin binding in an ELISA actin binding assay.
Solid-phase ELISA for RNASET2 peptide binding to immobilized actin was performed as modified from Mejean 1987 (Biochem. J. 244: 571-577) and Mejean 1992 (Eur. J Biochem. 209: 555-562). All steps were conducted at 37° C. Immuno-96 Microwell™ solid plates (Thermo Fisher Scientific, MA) coated with 500 ng/well of G-Actin from rabbit muscle (Sigma-Aldrich, St Louis, Mo.) in 100 ul of 0.05 M carbonate buffer, pH 9.5 (Sigma-Aldrich, Mo), incubated for 1 h and washed with 250 ul/well Tris Buffered Saline (TBS) (Sigma-Aldrich). The wells were blocked with 3% bovine serum albumin (BSA, Sigma-Aldrich) in 200 ul/well TBS for another 1 hour and washed with 250 ul/well TBS. The candidate peptides are then added at various concentrations (for example, serial dilutions giving 500, 250 or 125 ng/well) in 100 ul/well Tris Buffered Saline (TBS), incubated for 1 hour and washed 3 times with 250 ul/well TBS containing 0.05% Tween®20 (TBST, Sigma-Aldrich). Anti-T2 RNase (rabbit anti-rhtrRNASET2, Anilab, Israel, whole serum or antiserum) was then added, incubated for 1 hour and the plates washed 3 times with 250 ul/well TBST. Labeled second antibody [peroxidase-conjugated affinity pure goat-anti rabbit IgG (Jackson, Pa.)] was added at a dilution of 1:10:000 in 100 ul/well TBS, incubated for 1 hour and the plates washed twice with 250 ul/well TBST. After an additional wash with 250 ul/well TBS, 1-Step Ultra TMB-ELISA (TMB-3,3′,5,5′ Tetramethylbenzidine) (Thermo-Scientific) was added (100 ul/well) and after 15-25 min of incubation, the reaction was read at A650 using Infinite F50-TECAN ELISA READER (TECAN, Austria). Each assay was performed in triplicates.

Consider “ALNSQKKYFGRSLELYRELDLNSVLLKLGIKPSINYYQVADFKDALARVYGVIPKIQ [SEQ ID NO: 60]”, for which, in assay [1], the “inhibition of VEGF-induced tube formation” value was about 40% and the “inhibition of angiogenin-induced tube formation” value is recorded as about 40%. Further, the kon in assay [2] (read-out: Ka × 10^3) was 1060 M⁻¹ s⁻¹. Besides, in assay [3], the “actin binding on ELISA” value is reported as “strong”.

As to “KKYFGRSLELYRELDLNSVLLKLGIK [SEQ ID NO: 57, 26-amino acid peptide representing amino acids 108-133 of RNASET2]”, in assay [1], the “inhibition of VEGF-induced tube formation” value is about 75% and the “inhibition of angiogenin-induced tube formation” value is reported as about 50%. The “Ka × 10^3” value in assay [2] is on record as 3.32 ×10^3 1/Ms. Besides, the “actin binding on ELISA” value in assay [3] is recorded as “strong actin binding”.

The record behind these values is US20160340659A1, “ACTIN BINDING PEPTIDES AND COMPOSITIONS COMPRISING SAME FOR INHIBITING ANGIOGENESIS AND TREATING MEDICAL CONDITIONS ASSOCIATED WITH SAME” (YISSUM RESEARCH AND DEVELOPMENT COMPANY OF THE HEBREW …, priority 2014, published 2016).
